Assay results reported in patent publication US11447472B2, “Polymorophs of 5-aza-4′-thio-2′-deoxycytidine” (Southern Research Institute, priority 2020, dated 2022).
Read-outs that look alike come from different tables or passages of the source. Values belong to the molecule of their own block, whether it stands above or below them.

Assays:
[1] = Physical stability of solid forms under accelerated aging conditions (AAC, 25° C./60% RH, two days), HT-XRPD; settings: for AAC (form found after storage): Table 4, storage at 25° C., 60% relative humidity; for conversion after storage at 25° C., 60% relative humidity: two days
Method: All solids were exposed to accelerated aging conditions (2 days at 25° C./60% RH) and re-analyzed by HT-XRPD.
Subsequently, the solids were placed at 25° C./60% RH for two days (AAC) and re-analyzed by XRPD.
Subsequently, all solids were exposed to accelerated aging conditions for two days (AAC, 25° C./60% RH) and re-analyzed by HT-XRPD.
Subsequently, all the solids were exposed to accelerated aging conditions (25° C./60% RH) for two days and re-analyzed by HT-XRPD.
All solids were then exposed to accelerated aging conditions (2 days at 25° C./60% RH) followed by HT-XRPD re-analysis.
Subsequently, all solids were exposed to accelerated aging conditions (2 days at 25° C./60% RH) and re-analyzed by HT-XRPD.
Subsequently, all solids were exposed to accelerated aging conditions (25° C./60% RH) for two days and then re-analyzed by HT-XRPD.

[2] = Dissolution rate (IDR) at pH 1.2, 6.5 and 5.0; format: physicochemical
in vivo = settings: male, SD, rat, 2 mg/kg; for concentration at 0.25 h / concentration at 0.5 h / concentration at 1 h / concentration at 2 h / concentration at 4 h / concentration at 6 h / concentration at 8 h / concentration at 24 h: Concentration (plasma); for AUC(0-inf) / AUC(0-t) / Cmax / MRT inf / half-life / Tmax: po; for AUC(0-inf): AUCInf; for AUC(0-t): AUClast; for MRT inf: MRTInf_obs
[3] = in vivo, 2 mg/kg

AAC (form found after storage) ([1]; sample obtained by ECP from MeOH): A + L
SMILES: Nc1ncn([C@H]2C[C@H](O)[C@@H](CO)S2)c(=O)n1 [A + D2, 5-Aza-4′-thio-2′-deoxycytidine]

physical stability ([1]; in words): physically unstable
conversion after storage at 25° C., 60% relative humidity ([1]; text): converted to Form A
conversion after storage at 25° C., 60% relative humidity ([1]; text, listed as B): convert to Form A
SMILES: Nc1ncn([C@H]2C[C@H](O)[C@@H](CO)S2)c(=O)n1 [Form B, 5-Aza-4′-thio-2′-deoxycytidine]

conversion after storage at 25° C., 60% relative humidity ([1]; text, listed as C2): convert to Form A
SMILES: Nc1ncn([C@H]2C[C@H](O)[C@@H](CO)S2)c(=O)n1 [Form C2, 5-Aza-4′-thio-2′-deoxycytidine]

conversion after storage at 25° C., 60% relative humidity ([1]; text, listed as D2): convert to Form A
SMILES: Nc1ncn([C@H]2C[C@H](O)[C@@H](CO)S2)c(=O)n1 [Form D2, 5-Aza-4′-thio-2′-deoxycytidine]

AAC (form found after storage) ([1]; sample obtained by ECP from DMA/TBME (80/20, v/v)): A + F
conversion after storage at 25° C., 60% relative humidity ([1]; text): converts to Form A
conversion after storage at 25° C., 60% relative humidity ([1]; text, listed as E): convert to Form A
SMILES: Nc1ncn([C@H]2C[C@H](O)[C@@H](CO)S2)c(=O)n1 [Form E, 5-Aza-4′-thio-2′-deoxycytidine]

IDR ([2]; FaSSIF, pH 6.5): 2.7 ± 0.05 mg/mL/Cm^2/min
IDR ([2]; FeSSIF, pH 5.0): 6.0 ± 0.70 mg/mL/Cm^2/min
IDR ([2]; SGF, pH 1.2): 7.0 ± 1.26 mg/mL/Cm^2/min
concentration at 0.25 h (in vivo; Mean): 310 ng/mL
concentration at 0.5 h (in vivo; Mean): 768 ng/mL
concentration at 1 h (in vivo; Mean): 934 ng/mL
concentration at 2 h (in vivo; Mean): 755 ng/mL
concentration at 4 h (in vivo; Mean): 457 ng/mL
concentration at 6 h (in vivo; Mean): 324 ng/mL
concentration at 8 h (in vivo; Mean): 222 ng/mL
concentration at 24 h (in vivo; Mean): 5.43 ng/mL
concentration at 0.25 h (in vivo; individual rat): 225 ng/mL
concentration at 0.5 h (in vivo; individual rat): 755 ng/mL
concentration at 1 h (in vivo; individual rat): 886 ng/mL
concentration at 2 h (in vivo; individual rat): 746 ng/mL
concentration at 4 h (in vivo; individual rat): 536 ng/mL
concentration at 6 h (in vivo; individual rat): 362 ng/mL
concentration at 8 h (in vivo; individual rat): 245 ng/mL
concentration at 24 h (in vivo; individual rat): 7.04 ng/mL
AUC(0-inf) (in vivo; Mean): 5820 ng·h/mL
AUC(0-inf) (in vivo; individual rat): 6210 ng·h/mL
AUC(0-t) (in vivo; Mean): 5800 ng·h/mL
AUC(0-t) (in vivo; individual rat): 6180 ng·h/mL
Cmax (in vivo; Mean): 934 ng/mL
Cmax (in vivo; individual rat): 886 ng/mL
MRT inf (in vivo; Mean): 4.86 h
MRT inf (in vivo; individual rat): 5.09 h
half-life (in vivo; T1/2, Mean): 3 h
half-life (in vivo; T1/2, individual rat): 3.15 h
Tmax (in vivo; Mean): 1 h
Tmax (in vivo; individual rat): 1 h
Concentration (plasma), individual rat ([3]; male, SD, 0.25 h): 394 ng/mL
Concentration (plasma), individual rat ([3]; male, SD, 0.5 h): 780 ng/mL
Concentration (plasma), individual rat ([3]; male, SD, 1 h): 982 ng/mL
Concentration (plasma), individual rat ([3]; male, SD, 2 h): 764 ng/mL
Concentration (plasma), individual rat ([3]; male, SD, 4 h): 377 ng/mL
Concentration (plasma), individual rat ([3]; male, SD, 6 h): 285 ng/mL
Concentration (plasma), individual rat ([3]; male, SD, 8 h): 199 ng/mL
Concentration (plasma), individual rat ([3]; male, SD, 24 h): 3.81 ng/mL
AUCInf, individual rat ([3]; male, SD, po): 5435 ng·h/mL
AUClast, individual rat ([3]; male, SD, po): 5419 ng·h/mL
Cmax, individual rat ([3]; male, SD, po): 982 ng/mL
MRTInf_obs, individual rat ([3]; male, SD, po): 4.63 h
T1/2, individual rat ([3]; male, SD, po): 2.86 h
AUC values higher than SM ([3]; male, SD, rat): about 30%
AUC_%Extrap_obs, Mean ([3]; male, SD, rat): 0.402%
AUClast/D, Mean ([3]; male, SD, rat): 2900 ng·h/mL per mg/kg
Cmax value relative to SM ([3]; rat): about 1.4 times
SMILES: Nc1ncn([C@H]2C[C@H](O)[C@@H](CO)S2)c(=O)n1 [Form F, 5-Aza-4′-thio-2′-deoxycytidine]

conversion after storage at 25° C., 60% relative humidity ([1]; text): convert to Form A
conversion after storage at 25° C., 60% relative humidity ([1]; text, listed as G1): convert to Form A
SMILES: Nc1ncn([C@H]2C[C@H](O)[C@@H](CO)S2)c(=O)n1 [Form G1, 5-Aza-4′-thio-2′-deoxycytidine]

conversion after storage at 25° C., 60% relative humidity ([1]; text): convert to Form A
conversion after storage at 25° C., 60% relative humidity ([1]; text, listed as G2): convert to Form A
SMILES: Nc1ncn([C@H]2C[C@H](O)[C@@H](CO)S2)c(=O)n1 [Form G2, 5-Aza-4′-thio-2′-deoxycytidine]

AAC (form found after storage) ([1]; sample from the method/solvent of that table row): F + H
conversion after storage at 25° C., 60% relative humidity [1]: convert to Form A
conversion of the form ([1]; when obtained from NMP): converted to Form F
conversion of the form ([1]; when obtained from other solvents): converted to Form A
SMILES: Nc1ncn([C@H]2C[C@H](O)[C@@H](CO)S2)c(=O)n1 [Form H, 5-Aza-4′-thio-2′-deoxycytidine]

conversion after storage at 25° C., 60% relative humidity ([1]; text): converts to Form A
conversion after storage at 25° C., 60% relative humidity ([1]; text, listed as I): convert to Form A
SMILES: Nc1ncn([C@H]2C[C@H](O)[C@@H](CO)S2)c(=O)n1 [Form I, 5-Aza-4′-thio-2′-deoxycytidine]

conversion after storage at 25° C., 60% relative humidity ([1]; text): converts to Form A
conversion after storage at 25° C., 60% relative humidity ([1]; text, listed as J): convert to Form A
SMILES: Nc1ncn([C@H]2C[C@H](O)[C@@H](CO)S2)c(=O)n1 [Form J, 5-Aza-4′-thio-2′-deoxycytidine]

conversion after storage at 25° C., 60% relative humidity ([1]; text): converted to Form F
conversion after storage at 25° C., 60% relative humidity ([1]; text, listed as K): convert to Form A
SMILES: Nc1ncn([C@H]2C[C@H](O)[C@@H](CO)S2)c(=O)n1 [Form K, 5-Aza-4′-thio-2′-deoxycytidine]
